The results in this text go back to patent publication US12049439B2 (OrsoBio, Inc., priority 2018, dated 2024).

Each structure is given as a SMILES string.

Usually EC50 stands for the concentration at which the effect is half-maximal.

One assay deals with PC-3 cells. The assay is described as follows: PC-3 Oxygen Rate Consumption (OCR) Assay. As to conditions: Homo sapiens, 0.05 h, medium with 2% FBS, OCR at 3-min post-injection normalized to % increase over DMSO-treated cells, concentration for half-maximal OCR increase, read-out: EC50-PC3-OCR-FBS-3min. Format: cell-based. Summed up:
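PC-3 cells seeded a day before, equilibrated 1 h in XF medium with 10 mM glucose, 1 mM pyruvate, 2% FBS, non-CO2 at 37 °C. Compound injected after basal OCR reads; OCR at 3 min post-injection normalized as % increase over DMSO, EC50 = half-maximal increase; six replicates.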
`CS(=O)(=O)c1ccc(S(=O)(=O)Nc2ccc(C(F)(F)F)cc2C(=O)NC23CC(c4ccccc4)(C2)C3)cc1` [Example 87, 2-((4-(methylsulfonyl)phenyl)sulfonamido)-N-(3-phenylbicyclo[1.1.1]pentan-1-yl)-5-(trifluoromethyl)benzamide]: the EC50 amounted to 3280 nM.

Consider `COc1ccc(C(=O)NC23CC(C(F)(F)F)(C2)C3)c(NS(=O)(=O)c2ccc(S(C)(=O)=O)cc2)c1` [Example 88, 4-methoxy-2-((4-(methylsulfonyl)phenyl)sulfonamido)-N-(3-(trifluoromethyl)bicyclo[1.1.1]pentan-1-yl)benzamide], for which the EC50 is 26300 nM.

For `COc1ccc(C(=O)NC23CC(c4ccccc4)(C2)C3)c(NS(=O)(=O)c2ccc(S(C)(=O)=O)cc2)c1` [Example 89, 4-methoxy-2-((4-(methylsulfonyl)phenyl)sulfonamido)-N-(3-phenylbicyclo[1.1.1]pentan-1-yl)benzamide], the EC50 worked out at 26700 nM.

For the molecule `CS(=O)(=O)c1ccc(S(=O)(=O)Nc2ccc(Cl)cc2C(=O)NC23CC(C(F)(F)F)(C2)C3)cc1` [Example 90, 5-chloro-2-((4-(methylsulfonyl)phenyl)sulfonamido)-N-(3-(trifluoromethyl)bicyclo[1.1.1]pentan-1-yl)benzamide], the EC50 came to 2670 nM.

`CS(=O)(=O)c1ccc(S(=O)(=O)Nc2ccc(Cl)cc2C(=O)NC23CC(c4ccccc4)(C2)C3)cc1` [Example 91, 5-chloro-2-((4-(methylsulfonyl)phenyl)sulfonamido)-N-(3-phenylbicyclo[1.1.1]pentan-1-yl)benzamide]: the EC50 is 2970 nM.

As to `CS(=O)(=O)c1ccc(S(=O)(=O)Nc2cc(Cl)c(Cl)cc2C(=O)NC23CC(C(F)(F)F)(C2)C3)cc1` [Example 92, 4,5-dichloro-2-((4-(methylsulfonyl)phenyl)sulfonamido)-N-(3-(trifluoromethyl)bicyclo[1.1.1]pentan-1-yl)benzamide], the half-maximal effective concentration (EC50) was found to be 8090 nM.

Regarding `CS(=O)(=O)c1ccc(S(=O)(=O)Nc2cc(Cl)c(Cl)cc2C(=O)NC23CC(c4ccccc4)(C2)C3)cc1` [Example 93, 4,5-dichloro-2-((4-(methylsulfonyl)phenyl)sulfonamido)-N-(3-phenylbicyclo[1.1.1]pentan-1-yl)benzamide], the EC50 was 2640 nM.

Take `CC(C)(C)S(=O)(=O)Nc1ccc(Br)cc1C(=O)NC12CC(c3ccccc3)(C1)C2` [Example 94, 5-bromo-2-((1,1-dimethylethyl)sulfonamido)-N-(3-phenylbicyclo[1.1.1]pentan-1-yl)benzamide]: the EC50 was found to be 6160 nM.

On to `CC(C)(C)S(=O)(=O)Nc1ccc(Br)cc1C(=O)NC12CC(C(F)(F)F)(C1)C2` [Example 95, 5-bromo-2-((1,1-dimethylethyl)sulfonamido)-N-(3-(trifluoromethyl)bicyclo[1.1.1]pentan-1-yl)benzamide], for which the EC50 was 1120 nM.

As for `CC(C)(C)S(=O)(=O)Nc1ccc(C#N)cc1C(=O)NC12CC(c3ccccc3)(C1)C2` [Example 96, 5-cyano-2-((1,1-dimethylethyl)sulfonamido)-N-(3-phenylbicyclo[1.1.1]pentan-1-yl)benzamide], the EC50 is 1280 nM.

Take `CC(C)(C)S(=O)(=O)Nc1ccc(C#N)cc1C(=O)NC12CC(C(F)(F)F)(C1)C2` [Example 97, 5-cyano-2-((1,1-dimethylethyl)sulfonamido)-N-(3-(trifluoromethyl)bicyclo[1.1.1]pentan-1-yl)benzamide]: the EC50 amounted to 1430 nM.

`CC(C)(C)S(=O)(=O)Nc1cc(C#N)ccc1C(=O)NC12CC(c3ccccc3)(C1)C2` [Example 98, 4-cyano-2-((1,1-dimethylethyl)sulfonamido)-N-(3-phenylbicyclo[1.1.1]pentan-1-yl)benzamide]: the EC50 turned out to be 1980 nM.

Consider `CC(C)(C)S(=O)(=O)Nc1cc(C#N)ccc1C(=O)NC12CC(C(F)(F)F)(C1)C2` [Example 99, 4-cyano-2-((1,1-dimethylethyl)sulfonamido)-N-(3-(trifluoromethyl)bicyclo[1.1.1]pentan-1-yl)benzamide], for which the EC50 worked out at 1180 nM.

Take `CC(C)(C)S(=O)(=O)Nc1ccc(-c2ncccn2)cc1C(=O)NC12CC(C(F)(F)F)(C1)C2` [Example 100, 2-((1,1-dimethylethyl)sulfonamido)-5-(pyrimidin-2-yl)-N-(3-(trifluoromethyl)bicyclo[1.1.1]pentan-1-yl)benzamide]: the EC50 is 14200 nM.

For the molecule `O=C(NC12CC(C(F)(F)F)(C1)C2)c1ccc(C(F)(F)F)cc1NS(=O)(=O)c1ccc(-c2ncccn2)cc1` [Example 101, 2-((4-(pyrimidin-2-yl)phenyl)sulfonamido)-4-(trifluoromethyl)-N-(3-(trifluoromethyl)bicyclo[1.1.1]pentan-1-yl)benzamide], the EC50 is 1180 nM.

As to `CN(C)c1ccc(S(=O)(=O)Nc2cc(C(F)(F)F)ccc2C(=O)NC23CC(C(F)(F)F)(C2)C3)cc1` [Example 102, 2-((4-(dimethylamino)phenyl)sulfonamido)-4-(trifluoromethyl)-N-(3-(trifluoromethyl)bicyclo[1.1.1]pentan-1-yl)benzamide], the EC50 turned out to be 2420 nM.

In the case of `CS(=O)(=O)Oc1ccc(S(=O)(=O)Nc2cc(C(F)(F)F)ccc2C(=O)NC23CC(C(F)(F)F)(C2)C3)cc1` [Example 103, 4-(N-(5-(trifluoromethyl)-2-((3-(trifluoromethyl)bicyclo[1.1.1]pentan-1-yl)carbamoyl)phenyl)sulfamoyl)phenyl methanesulfonate], the EC50 stood at 1880 nM.

For the molecule `CCCS(=O)(=O)Nc1ccc(C#N)cc1C(=O)NC12CCC(C#N)(CC1)CC2` [Example 104, 5-cyano-N-(4-cyanobicyclo[2.2.2]octan-1-yl)-2-(propylsulfonamido)benzamide], the EC50 is 37500 nM.

In the case of `CS(=O)(=O)Nc1ccc(C(F)(F)F)cc1C(=O)NC12CCC(C#N)(CC1)CC2` [Example 105, N-(4-cyanobicyclo[2.2.2]octan-1-yl)-2-(methylsulfonamido)-5-(trifluoromethyl)benzamide], the EC50 came out at 22900 nM.

`O=C(NC12CC(C(F)(F)F)(C1)C2)c1ccc(C(F)(F)F)cc1NS(=O)(=O)c1ccc(N2CCS(=O)(=O)CC2)cc1` [Example 106, 2-((4-(1,1-dioxidothiomorpholino)phenyl)sulfonamido)-4-(trifluoromethyl)-N-(3-(trifluoromethyl)bicyclo[1.1.1]pentan-1-yl)benzamide]: the EC50 came out at 18800 nM.

As for `CS(=O)(=O)Nc1ccc(S(=O)(=O)Nc2cc(C(F)(F)F)ccc2C(=O)NC23CC(C(F)(F)F)(C2)C3)cc1` [Example 107, 2-((4-(methylsulfonamido)phenyl)sulfonamido)-4-(trifluoromethyl)-N-(3-(trifluoromethyl)bicyclo[1.1.1]pentan-1-yl)benzamide], the EC50 worked out at 30600 nM.

In the case of `O=C(NC12CC(C(F)(F)F)(C1)C2)c1ccc(C(F)(F)F)cc1NS(=O)(=O)c1ccc(F)cc1` [Example 109], the EC50 was 380 nM.

For `CC(C)(C)S(=O)(=O)Nc1cc(C(F)(F)F)ccc1C(=O)NC12CC(C(F)(F)F)(C1)C2` [Example 110, 2-((1,1-dimethylethyl)sulfonamido)-4-(trifluoromethyl)-N-(3-(trifluoromethyl)bicyclo[1.1.1]pentan-1-yl)benzamide], the concentration giving a half-maximal response (EC50) turned out to be 445 nM.

Regarding `COc1ccc(S(=O)(=O)Nc2cc(C(F)(F)F)ccc2C(=O)NC23CC(C(F)(F)F)(C2)C3)cc1` [Example 111, 2-((4-methoxyphenyl)sulfonamido)-4-(trifluoromethyl)-N-(3-(trifluoromethyl)bicyclo[1.1.1]pentan-1-yl)benzamide], the EC50 was found to be 811 nM.

In the case of `COCCOc1ccc(S(=O)(=O)Nc2cc(C(F)(F)F)ccc2C(=O)NC23CC(C(F)(F)F)(C2)C3)cc1` [Example 112, 2-((4-(2-methoxyethoxy)phenyl)sulfonamido)-4-(trifluoromethyl)-N-(3-(trifluoromethyl)bicyclo[1.1.1]pentan-1-yl)benzamide], the EC50 was determined as 1290 nM.

As for `CSCCOc1ccc(S(=O)(=O)Nc2cc(C(F)(F)F)ccc2C(=O)NC23CC(C(F)(F)F)(C2)C3)cc1` [Example 113, 2-((4-(2-(methylthio)ethoxy)phenyl)sulfonamido)-4-(trifluoromethyl)-N-(3-(trifluoromethyl)bicyclo[1.1.1]pentan-1-yl)benzamide], the EC50 came to 697 nM.

As for `CC(C)(C)S(=O)(=O)Nc1cc(C(F)(F)F)ccc1C(=O)NC12CCC(C#N)(CC1)CC2` [Example 114, N-(4-cyanobicyclo[2.2.2]octan-1-yl)-2-((1,1-dimethylethyl)sulfonamido)-4-(trifluoromethyl)benzamide], the EC50 is 3480 nM.

For the molecule `CS(=O)(=O)CCOc1ccc(S(=O)(=O)Nc2cc(C(F)(F)F)ccc2C(=O)NC23CC(C(F)(F)F)(C2)C3)cc1` [Example 115, 2-((4-(2-(methylsulfonyl)ethoxy)phenyl)sulfonamido)-4-(trifluoromethyl)-N-(3-(trifluoromethyl)bicyclo[1.1.1]pentan-1-yl)benzamide], the EC50 was 12600 nM.

For the molecule `CCS(=O)(=O)Nc1cc(C(F)(F)F)ccc1C(=O)NC12CC(C(F)(F)F)(C1)C2` [Example 116, 2-(ethylsulfonamido)-4-(trifluoromethyl)-N-(3-(trifluoromethyl)bicyclo[1.1.1]pentan-1-yl)benzamide], the EC50 was 1580 nM.

As for `CS(=O)(=O)Nc1cc(S(F)(F)(F)(F)F)ccc1C(=O)NC12CCC(C#N)(CC1)CC2` [Example 117, N-(4-cyanobicyclo[2.2.2]octan-1-yl)-2-(methylsulfonamido)-4-(pentafluoro-λ^6-sulfanyl)benzamide], the EC50 is 4020 nM.

Still in this assay, the particulars now being: medium with 2% FBS, OCR at 3-min post-injection normalized to % increase over DMSO-treated cells, concentration for half-maximal OCR increase, read-out: EC50-PC3-OCR-FBS-3min.
For the molecule `N#CC1(S(=O)(=O)Nc2ccc(C(F)(F)F)cc2C(=O)NC23CC(C(F)(F)F)(C2)C3)CC1` [Example 108, 2-((1-cyanocyclopropane)-1-sulfonamido)-5-(trifluoromethyl)-N-(3-(trifluoromethyl)bicyclo[1.1.1]pentan-1-yl)benzamide], the EC50 turned out to be 8440 nM.
